{"source": "patent US20240034729A9", "about": "“HETEROCYCLIC COMPOUND, INTERMEDIATE, PREPARATION METHOD THEREFOR AND APPLICATION THEREOF” (WUHAN LL SCIENCE AND TECHNOLOGY DEVELOPMENT CO., LTD., priority 2018, published 2024)", "key": {"[1]": {"tested_on": "Male Dunkin Hartley guinea pigs", "test": "ATP-citric acid cough model", "type": "in vivo, guinea pig", "details": "for Number of coughs / cough inhibition (in words): compared with the vehicle group", "method": "Male Dunkin Hartley guinea pigs (300-400 g) were placed into a whole-body plethysmography box to adapt for 3-5 min, then ATP atomization is carried out for 2 min, and 3 min later, 5 min of citric acid atomization was followed, with all atomization rates being about 300 uL/min. The number of coughs and the cough latency of the animals within 10 min from the start of the citric acid atomization were recorded. During the 10-min observation, coughs of the animals were counted manually, and the coughs were judged according to cough postures of the guinea pigs, such as abdominal twitching, mouth opening, head inclining downward abruptly and the like. The number of coughs during 10 min were recorded, and the cough latency of the guinea pigs was also recorded.\nThe animals were divided into a vehicle group, a dextromethorphan (63 mg/kg) positive group, an AF-219 (30 mg/kg) positive group and Example 173 compound (3, 10, 30 mg/kg) administration groups, and all the compounds were orally administered. Except that dextromethorphan was administered 40 min before ATP-citric acid exposure, the remaining compounds were administered 2 h before ATP-citric acid exposure."}, "[2]": {"details": "phase II clinical trial; cited from earlier work"}, "[3]": {"molecular_target": "hP2X2/3 (heterodimeric receptors formed by human purinergic P2X receptors subtype 2 and subtype 3) (Homo sapiens (Human), UniProt P56373+Q9UBL9)", "sequence (P56373 whole entry)": "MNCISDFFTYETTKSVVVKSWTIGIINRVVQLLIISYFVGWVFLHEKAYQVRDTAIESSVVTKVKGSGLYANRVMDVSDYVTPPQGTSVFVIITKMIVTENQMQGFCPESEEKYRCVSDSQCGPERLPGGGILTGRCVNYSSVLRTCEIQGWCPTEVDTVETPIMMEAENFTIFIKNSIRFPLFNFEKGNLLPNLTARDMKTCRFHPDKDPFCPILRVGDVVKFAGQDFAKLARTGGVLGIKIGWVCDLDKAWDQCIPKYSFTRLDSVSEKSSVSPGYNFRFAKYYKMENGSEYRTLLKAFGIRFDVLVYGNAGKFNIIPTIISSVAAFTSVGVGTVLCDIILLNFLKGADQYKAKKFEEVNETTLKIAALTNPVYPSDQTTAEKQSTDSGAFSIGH", "sequence (Q9UBL9 whole entry)": "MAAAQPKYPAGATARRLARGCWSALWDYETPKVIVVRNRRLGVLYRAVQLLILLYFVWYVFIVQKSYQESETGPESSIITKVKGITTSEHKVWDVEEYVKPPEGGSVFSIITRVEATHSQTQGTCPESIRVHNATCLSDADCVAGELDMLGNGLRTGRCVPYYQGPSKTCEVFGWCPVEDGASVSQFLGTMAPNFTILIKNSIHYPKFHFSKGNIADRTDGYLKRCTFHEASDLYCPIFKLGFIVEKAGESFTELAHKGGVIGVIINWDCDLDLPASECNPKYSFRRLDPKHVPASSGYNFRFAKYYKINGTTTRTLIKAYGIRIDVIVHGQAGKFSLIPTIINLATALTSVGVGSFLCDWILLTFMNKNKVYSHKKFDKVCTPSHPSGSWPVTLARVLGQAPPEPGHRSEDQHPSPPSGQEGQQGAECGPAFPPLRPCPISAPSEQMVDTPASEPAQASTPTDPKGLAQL", "test": "FLIPR calcium assay, hP2X2/3 expressed in HEK293 cells (P2X2/3 receptor selectivity)", "type": "cell-based"}, "[4]": {"tested_on": "Male Dunkin Hartley guinea pigs", "test": "Citric acid only cough model", "type": "in vivo, guinea pig", "set-up": "Mean cough latency: unit not given beside the values", "details": "for Mean number of coughs: 17.5% citric acid", "method": "Male Dunkin Hartley guinea pigs (300-350 g) were placed in an animal atomization box, and then the door of the atomization box was closed while the ultrasonic atomizer (Guangdong Yuehua) was turned on. 17.5% citric acid gas was introduced into the atomization box at a maximum atomization rate (about 2 mL/min) for 20 s, and coughs of the animals within 10 min were continuously observed from the time of the start of atomization. During the 10-min observation, coughs of the animals were counted manually, and the number of coughs were judged according to cough postures of the guinea pigs, such as abdominal twitching, mouth opening, and head inclining downward abruptly. The number of coughs during the first 5 min and that during 10 min were recorded, and the cough latency of the guinea pigs, namely the time from the initiation of citric acid induction to the appearance of the first cough, was also recorded."}, "[5]": {"test": "In vitro cytotoxicity assay, CCK-8 method", "type": "cell-based", "details": "human, HepG2 cells", "in_short": "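HepG2 cells at 50,000/well, grown to 80–90% confluence, exposed to compound dilutions or DMSO vehicle for 48 h at 37 °C. Viability by CCK-8 (1.5 h, 37 °C), absorbance at 450 nm; CC50 calculated.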"}, "[6]": {"test": "In vitro metabolic stability, human liver microsome", "type": "in vitro ADME", "details": "liver microsomes, 1 mg/mL liver microsome protein, 37° C., NA = essentially not metabolized, read-out: T1/2 in human liver microsome", "in_short": "(§1)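 Compounds incubated with rat or human liver microsomes. At each time point reactions stopped with cold acetonitrile containing internal standards and centrifuged. Supernatants analysed by LC-MS to derive in vitro metabolic half-life.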"}, "[7]": {"test": "In vitro metabolic stability, rat liver microsome", "type": "in vitro ADME", "details": "liver microsomes, 1 mg/mL liver microsome protein, 37° C., NA = essentially not metabolized, read-out: T1/2 in rat liver microsome", "in_short": "as §1"}, "[8]": {"test": "In vitro metabolic stability, guinea pig liver microsome", "type": "in vitro ADME", "details": "liver microsomes, 1 mg/mL liver microsome protein, 37° C., NA = essentially not metabolized, read-out: T1/2 in guinea pig liver microsome", "in_short": "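Test compound incubated at 37° C. in microsomes (1 mg/mL protein) with NADPH-regenerating system (1 mM NADP, 6 mM glucose 6-phosphate, 25 U/mL G6PDH, 5 mM MgCl2). Timed aliquots quenched in cold acetonitrile with internal standards; supernatant analysed by LC-MS to derive in vitro half-life.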"}, "Male SD rats": {"tested_on": "Male SD rats", "test": "Two-bottle dysgeusia test (quinine water vs normal water)", "type": "in vivo, rat", "details": "for Quinine/tap water* 100%: Table 9, rats, single intraperitoneal injection", "method": "All drinking water bottles were removed out 20 h before the start of the formal experiment, and all the animals were deprived of water until the start of the experiment. In the experiment, all the animals were randomly grouped and then subjected to a single intraperitoneal injection of a test compound or a vehicle before water was resupplied. The administration time was determined according to the Tmax of the test compound. Then the animals were placed in separate cages, and two bottles of drinking water (one bottle of normal drinking water and one bottle of 0.3 mM quinine water) were provided."}, "[9]": {"details": "30 mg/kg oral, 2 h before ATP-citric acid exposure"}, "[10]": {"details": "63 mg/kg oral, 40 min before ATP-citric acid exposure"}, "[11]": {"details": "before administration (baseline of the group)"}}, "note": "“Also recorded” adds a separate entry of the source."}
{"compound": "COc1cc(C(C)C)c(Oc2cnc(N)nc2N)cc1S(N)(=O)=O", "note": "[AF-219, reference compound]", "values": [{"measurement": "Cough inhibition ratio vs. vehicle (%)", "setting": "[1]; [9]", "value": 45.20, "unit": "%"}, {"measurement": "Number of coughs during 10 min", "setting": "[1]; [9]", "value": 11.42}, {"measurement": "Dysgeusia (in words)", "setting": "[2]", "value": "serious dysgeusia"}, {"measurement": "Efficacy for refractory cough (in words)", "setting": "[2]", "value": "relatively good efficacy for refractory cough"}]}
{"compound": "COc1ccc2c(c1)[C@]13CCCC[C@@H]1[C@H](C2)N(C)CC3", "note": "[Dextromethorphan, dextromethorphan, reference compound]", "values": [{"measurement": "Cough inhibition ratio vs. vehicle (%)", "setting": "[1]; [10]", "value": 61.60, "unit": "%"}, {"measurement": "Number of coughs during 10 min", "setting": "[1]; [10]", "value": 8.00}, {"measurement": "Number of coughs / cough inhibition (in words)", "setting": "[1]", "value": "can significantly reduce the number of coughs"}]}
{"compound": "COC(=O)N1CCO[C@@H](Cc2c(-c3c(F)cc(S(N)(=O)=O)cc3F)nc3cc(Cl)ccn23)C1", "note": "[Compound 172, methyl (S)-2-((7-chloro-2-(2,6-difluoro-4-sulfamoylphenyl)imidazo[1,2-a]pyridin-3-yl)methyl)morpholine-4-carboxylate]", "values": [{"measurement": "Folds of selectivity", "setting": "[3]", "value": ">85714"}, {"measurement": "Cough inhibition rate Vs Baseline (%)", "setting": "[4]; 30 mg/kg", "value": 50.6, "unit": "%"}, {"measurement": "Cough inhibition rate Vs Vehicle (%)", "setting": "[4]; 30 mg/kg", "value": 43.9, "unit": "%"}, {"measurement": "Number of coughs and cough latency (in words)", "setting": "[4]; 30 mg/kg, compared with the blank vehicle or the condition before administration", "value": "can effectively reduce the number of coughs and prolong the cough latency"}, {"measurement": "Mean cough latency", "setting": "[4]; after administration, 30 mg/kg", "value": 118.89}, {"measurement": "Mean number of coughs", "setting": "[4]; after administration, 30 mg/kg", "value": 9.67}, {"measurement": "Mean cough latency", "setting": "[4]; [11]", "value": 87.56}, {"measurement": "Mean number of coughs", "setting": "[4]; [11]", "value": 19.56}, {"measurement": "Number of coughs during 10 min", "setting": "[1]; 3 mg/kg oral, 2 h before ATP-citric acid exposure", "value": 14.42}, {"measurement": "Number of coughs during 10 min", "setting": "[1]; 10 mg/kg oral, 2 h before ATP-citric acid exposure", "value": 10.17}, {"measurement": "Number of coughs during 10 min", "setting": "[1]; [9]", "value": 9.83}, {"measurement": "Number of coughs / cough inhibition (in words)", "setting": "[1]", "value": "stronger cough inhibition effect than positive compound 2"}, {"measurement": "Number of coughs / cough inhibition (in words)", "setting": "[1]; listed as compound 172", "value": "can significantly reduce the number of coughs; also recorded: inhibition in a dose-dependent manner"}, {"measurement": "CC50 at 48 h", "setting": "[5]", "value": 57.1, "unit": "µM"}, {"measurement": "half-life", "setting": "[6]", "value": 13.7, "unit": "h"}, {"measurement": "half-life", "setting": "[7]", "value": 3.72, "unit": "h"}, {"measurement": "half-life", "setting": "[8]", "value": 6.84, "unit": "h"}, {"measurement": "Ratio of quinine/water intake of rats (in words)", "setting": "Male SD rats; 5 mg/kg, 10 mg/kg and 20 mg/kg, compared with the blank vehicle", "value": "almost unaffected"}, {"measurement": "Quinine/tap water* 100%", "setting": "Male SD rats; 5 mg/kg", "value": 7.05, "unit": "%"}, {"measurement": "Quinine/tap water* 100%", "setting": "Male SD rats; 10 mg/kg", "value": 7.41, "unit": "%"}, {"measurement": "Quinine/tap water* 100%", "setting": "Male SD rats; 20 mg/kg", "value": 8.66, "unit": "%"}]}
